Results taken from patent US7932270B2 (Cytokinetics, Inc., priority 2006, dated 2011).

Biological target: T1, chicken gizzard smooth muscle myosin subfragment-1 chemically crosslinked to cardiac or skeletal actin (Gallus gallus, UniProt P10587)
T1 construct: chicken gizzard smooth muscle myosin subfragment-1; from tissue; host or cells: chicken gizzard
Test: Smooth muscle myosin ATPase dose response assay (pyruvate kinase/horseradish peroxidase/pyruvate oxidase-coupled, amplex red fluorescence)
Format: biochemical
Details: read-out: IC50 Arithmetic Mean
Outline: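 Chicken gizzard myosin S1 crosslinked to cardiac or skeletal actin, titrated to a set hydrolysis rate; 0.15 mM ATP, 12 mM PIPES pH 7.00, 100 mM KCl, 2 mM MgCl2. Pyruvate kinase/pyruvate oxidase/HRP coupling with amplex red fluorescence; IC50 from 4-parameter fit.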

T1 sequence (P02607 2-151): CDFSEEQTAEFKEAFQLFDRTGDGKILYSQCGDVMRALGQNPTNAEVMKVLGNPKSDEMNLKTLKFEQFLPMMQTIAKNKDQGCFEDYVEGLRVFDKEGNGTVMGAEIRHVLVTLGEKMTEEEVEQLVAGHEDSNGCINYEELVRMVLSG
T1 sequence (P10587 84-789): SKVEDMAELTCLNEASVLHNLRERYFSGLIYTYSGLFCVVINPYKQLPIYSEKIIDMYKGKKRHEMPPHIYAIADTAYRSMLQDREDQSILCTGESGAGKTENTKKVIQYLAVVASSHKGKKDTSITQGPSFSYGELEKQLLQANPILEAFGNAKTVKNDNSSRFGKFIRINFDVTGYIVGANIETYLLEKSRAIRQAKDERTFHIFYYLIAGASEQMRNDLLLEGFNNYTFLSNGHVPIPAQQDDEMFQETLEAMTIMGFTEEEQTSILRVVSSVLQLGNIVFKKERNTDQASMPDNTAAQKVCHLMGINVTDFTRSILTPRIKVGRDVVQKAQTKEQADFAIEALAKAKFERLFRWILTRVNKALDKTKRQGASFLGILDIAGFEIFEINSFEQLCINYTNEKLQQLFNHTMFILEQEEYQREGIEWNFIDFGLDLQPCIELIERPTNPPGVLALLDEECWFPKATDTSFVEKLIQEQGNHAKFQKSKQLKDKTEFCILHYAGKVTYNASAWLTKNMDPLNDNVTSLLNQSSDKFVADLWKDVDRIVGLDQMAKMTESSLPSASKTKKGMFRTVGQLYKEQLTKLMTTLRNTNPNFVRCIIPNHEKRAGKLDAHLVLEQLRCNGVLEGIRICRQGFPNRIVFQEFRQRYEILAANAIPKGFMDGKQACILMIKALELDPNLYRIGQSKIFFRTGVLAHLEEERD

Point of comparison: `NCc1cccc(CCNC(=O)c2ccc(-c3ccccc3)nc2NCCc2cccc(F)c2)n1` [N-{2-[6-(aminomethyl)(2-pyridyl)]ethyl}(2-{[2-(3-fluorophenyl)ethyl]amino}-6-phenyl(3-pyridyl))carboxamide], IC50 0.252 µM. Against it:
- CC(=O)N1CCN(C(C)=O)[C@@H](CNC(=O)c2ccc(-c3ccccc3C#N)nc2NCCc2cccc(F)c2)C1 [N-[((2S)-1,4-diacetylpiperazin-2-yl)methyl](6-(2-cyanophenyl)-2-{[2-(3-fluorophenyl)ethyl]amino}(3-pyridyl))carboxamide] — 68-fold higher, 17.2 µM
- CC(=O)N1CCN(C)C[C@@H]1CNC(=O)c1ccc(-c2ccccc2C#N)nc1NCCc1cccc(F)c1 [N-[((2S)-1-acetyl-4-methylpiperazin-2-yl)methyl](6-(2-cyanophenyl)-2-{[2-(3-fluorophenyl)ethyl]amino}(3-pyridyl))carboxamide] — 27-fold higher, 6.79 µM
- CC(=O)N1CCC[C@H]1CNC(=O)c1ccc(-c2ccccc2)nc1NCCc1ccccn1 [N-[((2S)-1-acetylpyrrolidin-2-yl)methyl]{6-phenyl-2-[(2-(2-pyridyl)ethyl)amino](3-pyridyl)}carboxamide] — 62-fold higher, 15.7 µM
- CC(C)(C)OC(=O)NCC(=O)N1CCCC[C@H]1CNC(=O)c1ccc(-c2ccccc2C#N)nc1NCCc1cccc(F)c1 [N-[((2S)-1-{2-[(tert-butoxy)carbonylamino]acetyl}(2-piperidyl))methyl](6-(2-cyanophenyl)-2-{[2-(3-fluorophenyl)ethyl]amino}(3-pyridyl))carboxamide] — 67-fold higher, 17 µM
- CC(C)(C)OC(=O)NCCC(=O)N1CCCC[C@H]1CNC(=O)c1ccc(-c2ccccc2C#N)nc1NCCc1cccc(F)c1 [N-[((2S)-1-{3-[(tert-butoxy)carbonylamino]propanoyl}(2-piperidyl))methyl](6-(2-cyanophenyl)-2-{[2-(3-fluorophenyl)ethyl]amino}(3-pyridyl))carboxamide] — 34-fold higher, 8.64 µM
- CC(C)(C)OC(=O)NCCCN1C(=O)CC[C@H]1CNC(=O)c1ccc(-c2ccccc2C#N)nc1NCCc1cccc(F)c1 [N-[((2S)-1-{3-[(tert-butoxy)carbonylamino]propyl}-5-oxopyrrolidin-2-yl)methyl](6-(2-cyanophenyl)-2-{[2-(3-fluorophenyl)ethyl]amino}(3-pyridyl))carboxamide] — 18-fold higher, 4.52 µM
- CN1CCN[C@@H](CNC(=O)c2ccc(-c3ccccc3C#N)nc2NCCc2cccc(F)c2)C1 [N-[((2S)-4-methylpiperazin-2-yl)methyl](6-(2-cyanophenyl)-2-{[2-(3-fluorophenyl)ethyl]amino}(3-pyridyl))carboxamide] — 12-fold higher, 2.92 µM
- N#Cc1ccccc1-c1ccc(C(=O)NC[C@@H]2CCC(=O)N2)c(NCCc2cccc(F)c2)n1 [N-[((2S)-5-oxopyrrolidin-2-yl)methyl](6-(2-cyanophenyl)-2-{[2-(3-fluorophenyl)ethyl]amino}(3-pyridyl))carboxamide] — 1.9-fold lower, 0.133 µM
- Cn1cc(-c2ccc(C(=O)NC[C@@H]3CNCC(=O)N3)c(NCCc3cccc(F)c3)n2)cn1 [N-[((2S)-6-oxopiperazin-2-yl)methyl](2-{[2-(3-fluorophenyl)ethyl]amino}-6-(1-methylpyrazol-4-yl)(3-pyridyl))carboxamide] — 52-fold higher, 13.1 µM
- O=C1CNC[C@@H](CNC(=O)c2ccc(-c3cc[nH]n3)nc2NCCc2cccc(F)c2)N1 [N-[((2S)-6-oxopiperazin-2-yl)methyl](2-{[2-(3-fluorophenyl)ethyl]amino}-6-pyrazol-3-yl(3-pyridyl))carboxamide] — 25-fold higher, 6.39 µM
- O=C1CNC[C@@H](CNC(=O)c2ccc(-c3cn[nH]c3)nc2NCCc2cccc(F)c2)N1 [N-[((2S)-6-oxopiperazin-2-yl)methyl](2-{[2-(3-fluorophenyl)ethyl]amino}-6-pyrazol-4-yl(3-pyridyl))carboxamide] — 63-fold higher, 16 µM
- N#Cc1ccccc1-c1ccc(C(=O)NC[C@@H]2CNCC(=O)N2)c(NCCc2cccc(F)c2)n1 [N-[((2S)-6-oxopiperazin-2-yl)methyl](6-(2-cyanophenyl)-2-{[2-(3-fluorophenyl)ethyl]amino}(3-pyridyl))carboxamide] — 3.2-fold higher, 0.819 µM
- O=C(NC[C@@H]1CCCO1)c1ccc(-c2ccccc2)nc1NCCc1ccccn1 [N-[((2S)oxolan-2-yl)methyl]{6-phenyl-2-[(2-(2-pyridyl)ethyl)amino](3-pyridyl)}carboxamide] — 27-fold higher, 6.82 µM
- N#Cc1ccccc1-c1ccc(C(=O)NC[C@@H]2CCCN2)c(NCCc2cccc(F)c2)n1 [N-[((2S)pyrrolidin-2-yl)methyl](6-(2-cyanophenyl)-2-{[2-(3-fluorophenyl)ethyl]amino}(3-pyridyl))carboxamide] — 18-fold higher, 4.57 µM
- N#Cc1ccccc1-c1ccc(C(=O)NC[C@@H]2CCCNC2)c(NCCc2cccc(F)c2)n1 [N-[((3R)(3-piperidyl))methyl](6-(2-cyanophenyl)-2-{[2-(3-fluorophenyl)ethyl]amino}(3-pyridyl))carboxamide] — 8.5-fold higher, 2.15 µM
- CC(=O)N1CCC[C@H](CNC(=O)c2ccc(-c3ccccc3C#N)nc2NCCc2cccc(F)c2)C1 [N-[((3R)-1-acetyl(3-piperidyl))methyl](6-(2-cyanophenyl)-2-{[2-(3-fluorophenyl)ethyl]amino}(3-pyridyl))carboxamide] — 2.8-fold higher, 0.696 µM
- CC(=O)N1CC[C@H](CNC(=O)c2ccc(-c3ccccc3)nc2NCCc2ccccn2)C1 [N-[((3R)-1-acetylpyrrolidin-3-yl)methyl]{6-phenyl-2-[(2-(2-pyridyl)ethyl)amino](3-pyridyl)}carboxamide] — 110-fold higher, 26.9 µM
- CC(C)(C)OC(=O)NCC(=O)N1CCC[C@H](CNC(=O)c2ccc(-c3ccccc3C#N)nc2NCCc2cccc(F)c2)C1 [N-[((3R)-1-{2-[(tert-butoxy)carbonylamino]acetyl}(3-piperidyl))methyl](6-(2-cyanophenyl)-2-{[2-(3-fluorophenyl)ethyl]amino}(3-pyridyl))carboxamide] — within 1.5-fold, 0.199 µM
- CC(C)(C)OC(=O)NCCC(=O)N1CCC[C@H](CNC(=O)c2ccc(-c3ccccc3C#N)nc2NCCc2cccc(F)c2)C1 [N-[((3R)-1-{3-[(tert-butoxy)carbonylamino]propanoyl}(3-piperidyl))methyl](6-(2-cyanophenyl)-2-{[2-(3-fluorophenyl)ethyl]amino}(3-pyridyl))carboxamide] — 15-fold higher, 3.79 µM
- CC(C)(C)OC(=O)NCCCC(=O)N1CCC[C@H](CNC(=O)c2ccc(-c3ccccc3C#N)nc2NCCc2cccc(F)c2)C1 [N-[((3R)-1-{4-[(tert-butoxy)carbonylamino]butanoyl}(3-piperidyl))methyl](6-(2-cyanophenyl)-2-{[2-(3-fluorophenyl)ethyl]amino}(3-pyridyl))carboxamide] — 24-fold higher, 6.16 µM
- O=C(NC[C@@H]1CCNC1)c1ccc(-c2ccccc2)nc1NCCc1ccccn1 [N-[((3R)pyrrolidin-3-yl)methyl]{6-phenyl-2-[(2-(2-pyridyl)ethyl)amino](3-pyridyl)}carboxamide] — 210-fold higher, 53.6 µM
- N#Cc1ccccc1-c1ccc(C(=O)NC[C@H]2CCCNC2)c(NCCc2cccc(F)c2)n1 [N-[((3S)(3-piperidyl))methyl](6-(2-cyanophenyl)-2-{[2-(3-fluorophenyl)ethyl]amino}(3-pyridyl))carboxamide] — 7.8-fold higher, 1.97 µM
- CC(=O)N1CCC[C@@H](CNC(=O)c2ccc(-c3ccccc3C#N)nc2NCCc2cccc(F)c2)C1 [N-[((3S)-1-acetyl(3-piperidyl))methyl](6-(2-cyanophenyl)-2-{[2-(3-fluorophenyl)ethyl]amino}(3-pyridyl))carboxamide] — 42-fold higher, 10.7 µM
- CC(=O)N1CC[C@@H](CNC(=O)c2ccc(-c3ccccc3)nc2NCCc2ccccn2)C1 [N-[((3S)-1-acetylpyrrolidin-3-yl)methyl]{6-phenyl-2-[(2-(2-pyridyl)ethyl)amino](3-pyridyl)}carboxamide] — 100-fold higher, 25.2 µM
- O=C(NC[C@H]1CCNC1)c1ccc(-c2ccccc2)nc1NCCc1ccccn1 [N-[((3S)pyrrolidin-3-yl)methyl]{6-phenyl-2-[(2-(2-pyridyl)ethyl)amino](3-pyridyl)}carboxamide] — 250-fold higher, 62.6 µM
- O=C(NCc1ccccc1)c1ccc(-c2ccccc2)nc1NCCc1ccccn1 [N-benzyl{6-phenyl-2-[(2-(2-pyridyl)ethyl)amino](3-pyridyl)}carboxamide] — 6.2-fold higher, 1.56 µM
- CNC(=O)c1ccc(-c2ccccc2)nc1NCCc1cccc(C)c1 [N-methyl(2-{[2-(3-methylphenyl)ethyl]amino}-6-phenyl(3-pyridyl))carboxamide] — 27-fold higher, 6.75 µM
- CNC(=O)CNC(=O)c1ccc(-c2ccccc2)nc1NCCc1ccccc1 [N-methyl-2-({6-phenyl-2-[(2-phenylethyl)amino](3-pyridyl)}carbonylamino)acetamide] — 1.9-fold higher, 0.486 µM
- CNC(=O)c1ccc(-c2ccccc2)nc1NCCc1ccccn1 [N-methyl{6-phenyl-2-[(2-(2-pyridyl)ethyl)amino](3-pyridyl)}carboxamide] — 110-fold higher, 27.7 µM
- CNC(=O)c1ccc(-c2ccccc2)nc1NCCc1ccccc1 [N-methyl{6-phenyl-2-[(2-phenylethyl)amino](3-pyridyl)}carboxamide] — 74-fold higher, 18.6 µM
- N#Cc1ccccc1-c1ccc(C(=O)NCCc2ncccc2CN)c(NCCc2cccc(F)c2)n1 [N-{2-[3-(aminomethyl)(2-pyridyl)]ethyl}(6-(2-cyanophenyl)-2-{[2-(3-fluorophenyl)ethyl]amino}(3-pyridyl))carboxamide] — within 1.5-fold, 0.31 µM
- N#Cc1ccccc1-c1ccc(C(=O)NCCc2cccc(CN)n2)c(NCCc2cccc(F)c2)n1 [N-{2-[6-(aminomethyl)(2-pyridyl)]ethyl}(6-(2-cyanophenyl)-2-{[2-(3-fluorophenyl)ethyl]amino}(3-pyridyl))carboxamide] — 7.9-fold lower, 0.032 µM
- N#Cc1ccccc1-c1ccc(C(=O)NCCNCCN)c(NCCc2cccc(F)c2)n1 [N-{2-[(2-aminoethyl)amino]ethyl}(6-(2-cyanophenyl)-2-{[2-(3-fluorophenyl)ethyl]amino}(3-pyridyl))carboxamide] — 1.8-fold higher, 0.444 µM
- N#Cc1ccccc1-c1ccc(C(=O)NCCN2C(=O)CC[C@@H]2CN)c(NCCc2cccc(F)c2)n1 [N-{2-[(5R)-5-(aminomethyl)-2-oxopyrrolidinyl]ethyl}(6-(2-cyanophenyl)-2-{[2-(3-fluorophenyl)ethyl]amino}(3-pyridyl))carboxamide] — 77-fold higher, 19.5 µM
